Patent publication US20090247770A1, “PROCESS FOR MAKING LACTAM TACHYKININ RECEPTOR ANTAGONISTS” (priority 2006, published 2009)
Structures can show the parent of a compound that is named as a salt. Where two headings read alike, the source gives them in different places.

Key:
[1] = Solid state chemical stability of crystalline salts; format: physicochemical
[2] = Solid state physical stability (form conversion) of crystalline salts; format: physicochemical; details: No form conversion after 1 week at 40° C./ambient RH, 40° C./75% RH, and 80° C.
[3] = Relative thermodynamic stability of crystal forms; format: physicochemical; details: comparison of besylate crystal forms
Excerpt: The benzyloxycarbonyl (Cbz) group of 16 was cleaved to give 1 by a noble transition metal, such as Pd/C, […], Pt/C, catalyzed hydrogenation in an alcoholic solvent such as methanol, ethanol, or the like, or by acidic solvolysis with a hydrogen halide such as HCl, HBr, or HI or an equivalent such as combination of a metal or an ammonium halide and an acid trifluoroacetic acid, methanesulfonic acid, or the like in organic solvent such as acetonitrile, toluene, or acetic acid at a temperature from about 0° C. to about 60° C. If this deprotection of Cbz group was carried out under acidic condition, 1 could be obtained from 14a,b or 15a,b in a one-pot manner. Benzyl halide, which was a side product of deprotection of Cbz group, was easily removed from the reaction mixture by back-extraction with heptane. Free base of 1 was difficult to be extracted from the aqueous layer to organic layer because of its amphipathic physical property. […] Crude free base was purified by crystallization as a benzenesulfonate salt from IPA-IPAc-heptane solvent system. The benzenesulfonate salt has two crystal forms Form I or II. […] The benzenesulfonate salt can be recrystallized from acetonitrile and alcohol such as methanol, ethanol, or isopropanol, if necessary.

[4] = Hygroscopicity of crystalline salts of the compound of Formula Ia; format: physicochemical

SMILES | melting point | Solid State Chemical Stability [1] | Solid State Physical Stability [2] | Thermodynamic stability relative to other crystal form [3] | Solid State Chemical Stability ([1]; listed as anhydrous form I) | Solid State Physical Stability ([2]; listed as anhydrous form I) | Hygroscopicity (25° C.) [4]
C[C@@H](O[C@H]1CC[C@@H]([C@H]2C[C@@](C)(N)C(=O)N2)[C@@H]1c1ccc(F)cc1)c1cc(C(F)(F)F)cc(C(F)(F)F)c1 (as salt: succinate) (hydrate or solvate) | 187 °C | – | – | – | – | – | –
C[C@@H](O[C@H]1CC[C@@H]([C@H]2C[C@@](C)(N)C(=O)N2)[C@@H]1c1ccc(F)cc1)c1cc(C(F)(F)F)cc(C(F)(F)F)c1 [Besylate Anhydrous Form II] | – | Stable | Stable^3 | more thermodynamically stable than Form 1 | – | – | –
C[C@@H](O[C@H]1CC[C@@H]([C@H]2C[C@@](C)(N)C(=O)N2)[C@@H]1c1ccc(F)cc1)c1cc(C(F)(F)F)cc(C(F)(F)F)c1 [Besylate Anhydrous Form I] | – | Stable | Stable^3 | more thermodynamically stable than form II | physically and chemically stable | physically and chemically stable | consistently non-hygroscopic
C[C@@H](O[C@H]1CC[C@@H]([C@H]2C[C@@](C)(N)C(=O)N2)[C@@H]1c1ccc(F)cc1)c1cc(C(F)(F)F)cc(C(F)(F)F)c1 [Succinate] | – | – | Stable | – | – | – | –
